The IC90 is the point of the concentration-response curve where the effect stands at 90%. The term EC50 denotes the concentration needed to bring the measured effect to its halfway point.

One experiment deals with T1, plasma kallikrein (Homo sapiens, UniProt P03952).
T1 construct: from tissue
In words: Neat human plasma assay, FXIIa contact pathway-activated, PFR-AMC substrate. The format is biochemical. The note with it: citrated human plasma 78% final, 10 nM human FXIIa, 100 μM PFR-AMC; read-out: Human Plasma Assay: IC90. An outline of the steps:
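Compound inhibition of plasma kallikrein measured as PFR-AMC (100 μM) cleavage rate over 5 min at room temperature in 78% citrated human plasma activated with 10 nM FXIIa (Tris pH 7.5 buffer). IC50/IC90 from 4-parameter fit of rate versus inhibitor concentration.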

The target of experiment [1] is human activated kallikrein enzyme (Homo sapiens, UniProt P03952). Briefly: Plasma kallikrein inhibition, fluorogenic PFR-AMC substrate, 500 pM activated kallikrein format. The format is biochemical. The note with it: 500 pM activated kallikrein, 300 uM PFR-AMC, 30 min preincubation, 10 min reaction; read-out: Primary Dose Response Assay: Average EC50. An outline of the steps:
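High-enzyme format of the fluorogenic peptide assay, with EC50 taken from AMC signal: 500 pM activated kallikrein, 300 uM Pro-Phe-Arg-AMC, 30 min compound preincubation and 10 min reaction, all at room temperature, pH 7.5.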

T1 sequence (P03952 391-638 limits assumed): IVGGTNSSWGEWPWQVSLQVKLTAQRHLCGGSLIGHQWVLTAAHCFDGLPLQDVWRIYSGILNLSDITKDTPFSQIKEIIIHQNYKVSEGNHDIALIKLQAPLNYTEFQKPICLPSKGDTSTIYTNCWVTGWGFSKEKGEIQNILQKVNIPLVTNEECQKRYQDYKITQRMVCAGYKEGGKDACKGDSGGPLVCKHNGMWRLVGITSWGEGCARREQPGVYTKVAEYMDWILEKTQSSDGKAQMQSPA
T1 sequence (P03952 20-390 partner limits assumed): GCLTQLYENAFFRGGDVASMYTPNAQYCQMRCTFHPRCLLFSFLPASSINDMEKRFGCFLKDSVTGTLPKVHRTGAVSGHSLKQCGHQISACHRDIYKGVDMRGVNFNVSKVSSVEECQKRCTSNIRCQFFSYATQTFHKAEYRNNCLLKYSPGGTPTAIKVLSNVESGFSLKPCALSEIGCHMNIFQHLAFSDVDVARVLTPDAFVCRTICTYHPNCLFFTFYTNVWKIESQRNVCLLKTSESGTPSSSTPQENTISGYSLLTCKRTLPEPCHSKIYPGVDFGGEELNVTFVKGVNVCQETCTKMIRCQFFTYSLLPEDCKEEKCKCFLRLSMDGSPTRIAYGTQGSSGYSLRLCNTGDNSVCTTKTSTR
human activated kallikrein enzyme, sequence (P03952 391-638 limits assumed): as the sequence (P03952 391-638 limits assumed) above
human activated kallikrein enzyme, sequence (P03952 20-390 partner limits assumed): as the sequence (P03952 20-390 partner limits assumed) above

`Cc1nc([C@H]2C[C@@H]2C(=O)Nc2cc(NCc3cn4cc(C5CC5)cc(N5CC(=O)N(C)C5=O)c4n3)ncn2)ncc1F` (racemic) [Example 489, rac-(1S*,2S*)—N-(6-(((6-cyclopropyl-8-(3-methyl-2,4-dioxoimidazolidin-1-yl)imidazo[1,2-a]pyridin-2-yl)methyl)amino)pyrimidin-4-yl)-2-(5-fluoro-4-methylpyrimidin-2-yl)cyclopropane-1-carboxamide]: at plasma kallikrein, the IC90 was in the range of 400 to 1500 nM. Moreover, the EC50 in experiment [1] was under 1 nM.
For the compound `Cc1ccnc([C@@]2(F)C[C@@H]2C(=O)Nc2cc(N(C)Cc3cn4cc(C5CC5)cc(N5CC(=O)N(C)C5=O)c4n3)nc(C)n2)n1` (racemic) [Example 490, rac-(1S*,2S*)-N-(6-(((6-cyclopropyl-8-(3-methyl-2,4-dioxoimidazolidin-1-yl)imidazo[1,2-a]pyridin-2-yl)methyl)(methyl)amino)-2-methylpyrimidin-4-yl)-2-fluoro-2-(4-methylpyrimidin-2-yl)cyclopropane-1-carboxamide], the IC90 at plasma kallikrein was 400 to 1500 nM. In addition, the EC50 in experiment [1] is under 1 nM.
Regarding `Cc1nc([C@H]2C[C@@H]2C(=O)Nc2cc(NCc3cn4cc(C5CC5)cc(N5CC(=O)N(C)C5=O)c4n3)ncn2)cs1` (racemic) [Example 493, rac-(1S*,2S*)-N-(6-(((6-cyclopropyl-8-(3-methyl-2,4-dioxoimidazolidin-1-yl)imidazo[1,2-a]pyridin-2-yl)methyl)amino)pyrimidin-4-yl)-2-(2-methylthiazol-4-yl)cyclopropane-1-carboxamide], the IC90 at plasma kallikrein is 400 to 1500 nM. The half-maximal effective concentration (EC50) in experiment [1] was 1 to 10 nM.
Turning to `Cc1ccnc([C@@H]2[C@@H](C(=O)Nc3cc(NCc4cn5cc(C6CC6)cc(N6CC(=O)N(C)C6=O)c5n4)ncn3)C2(F)F)n1` (racemic) [Example 494, rac-(1S*,3S*)-N-(6-(((6-cyclopropyl-8-(3-methyl-2,4-dioxoimidazolidin-1-yl)imidazo[1,2-a]pyridin-2-yl)methyl)amino)pyrimidin-4-yl)-2,2-difluoro-3-(4-methylpyrimidin-2-yl)cyclopropane-1-carboxamide], the IC90 on plasma kallikrein is under 400 nM. For the same compound, in experiment [1], the EC50 is under 1 nM.
Regarding `Cc1ncnc([C@H]2C[C@@H]2C(=O)Nc2cc(NCc3cn4cc(C5CC5)cc(N5CC(=O)N(C)C5=O)c4n3)ncn2)n1` (racemic) [Example 495, rac-(1S*,2S*)-N-(6-(((6-cyclopropyl-8-(3-methyl-2,4-dioxoimidazolidin-1-yl)imidazo[1,2-a]pyridin-2-yl)methyl)amino)pyrimidin-4-yl)-2-(4-methyl-1,3,5-triazin-2-yl)cyclopropane-1-carboxamide], the IC90 at plasma kallikrein lay in the range of 400 to 1500 nM. For the same compound, the EC50 in experiment [1] was in the range of 1 to 10 nM.
Turning to `Cc1ccnc([C@@]2(F)C[C@@H]2C(=O)Nc2cc(NCc3cn4cc(C5CC5)cc(N5CC(=O)N(C)C5=O)c4n3)ncn2)n1` (racemic) [Example 496, rac-(1S*,2S*)-N-(6-(((6-cyclopropyl-8-(3-methyl-2,4-dioxoimidazolidin-1-yl)imidazo[1,2-a]pyridin-2-yl)methyl)amino)pyrimidin-4-yl)-2-fluoro-2-(4-methylpyrimidin-2-yl)cyclopropane-1-carboxamide], the IC90 at plasma kallikrein was under 400 nM. In experiment [1], the EC50 is under 1 nM.
Consider `Cc1cc(C)nc([C@H]2C[C@@H]2C(=O)Nc2cc(NCc3cn4cc(C5CC5)cc(N5CC(=O)N(C)C5=O)c4n3)ncn2)n1` (racemic) [Example 497, rac-(1S*,2S*)-N-(6-(((6-cyclopropyl-8-(3-methyl-2,4-dioxoimidazolidin-1-yl)imidazo[1,2-a]pyridin-2-yl)methyl)amino)pyrimidin-4-yl)-2-(4,6-dimethylpyrimidin-2-yl)cyclopropane-1-carboxamide], for which the 90% effect concentration (IC90) on plasma kallikrein fell in the range of 400 to 1500 nM. Besides, the EC50 in experiment [1] is under 1 nM.
Consider `Cc1cncc([C@H]2C[C@@H]2C(=O)Nc2cc(NCc3cn4cc(C5CC5)cc(N5CC(=O)N(C)C5=O)c4n3)ncn2)n1` (racemic) [Example 498, rac-(1S*,2S*)-N-(6-(((6-cyclopropyl-8-(3-methyl-2,4-dioxoimidazolidin-1-yl)imidazo[1,2-a]pyridin-2-yl)methyl)amino)pyrimidin-4-yl)-2-(6-methylpyrazin-2-yl)cyclopropane-1-carboxamide], for which the IC90 on plasma kallikrein lay within 400 to 1500 nM. Also, in experiment [1], the EC50 is under 1 nM.
Regarding `Cc1nccc([C@H]2C[C@@H]2C(=O)Nc2cc(NCc3cn4cc(C5CC5)cc(N5CC(=O)N(C)C5=O)c4n3)ncn2)n1` (racemic) [Example 499, rac-(1S*,2S*)-N-(6-(((6-cyclopropyl-8-(3-methyl-2,4-dioxoimidazolidin-1-yl)imidazo[1,2-a]pyridin-2-yl)methyl)amino)pyrimidin-4-yl)-2-(2-methylpyrimidin-4-yl)cyclopropane-1-carboxamide], the IC90 at plasma kallikrein lay within 400 to 1500 nM. Further, in experiment [1], the EC50 was in the range of 1 to 10 nM.
As to `Cc1cccc([C@H]2C[C@@H]2C(=O)Nc2cc(NCc3cn4cc(C5CC5)cc(N5CC(=O)N(C)C5=O)c4n3)ncn2)n1` (racemic) [Example 500, rac-(1S*,2S*)-N-(6-(((6-cyclopropyl-8-(3-methyl-2,4-dioxoimidazolidin-1-yl)imidazo[1,2-a]pyridin-2-yl)methyl)amino)pyrimidin-4-yl)-2-(6-methylpyridin-2-yl)cyclopropane-1-carboxamide], the IC90 at plasma kallikrein fell in the range of 400 to 1500 nM. The EC50 in experiment [1] was under 1 nM.
For the compound `Cc1ccnc([C@H]2C[C@@H]2C(=O)Nc2cc(NCc3cn4cc(C5CC5)cc(N5CC(=O)N(C)C5=O)c4n3)nc(C(F)(F)F)n2)n1` (racemic) [Example 501, rac-(1S*,2S*)-N-(6-(((6-cyclopropyl-8-(3-methyl-2,4-dioxoimidazolidin-1-yl)imidazo[1,2-a]pyridin-2-yl)methyl)amino)-2-(trifluoromethyl)pyrimidin-4-yl)-2-(4-methylpyrimidin-2-yl)cyclopropane-1-carboxamide], the IC90 at plasma kallikrein lay within 400 to 1500 nM. Besides, in experiment [1], the EC50 is under 1 nM.
The matching figures for `Cc1ccc(F)c([C@H]2C[C@@H]2C(=O)Nc2cc(NCc3cn4cc(C5CC5)cc(N5CC(=O)N(C)C5=O)c4n3)ncn2)n1` (racemic) [Example 502, rac-(1S*,2S*)-N-(6-(((6-cyclopropyl-8-(3-methyl-2,4-dioxoimidazolidin-1-yl)imidazo[1,2-a]pyridin-2-yl)methyl)amino)pyrimidin-4-yl)-2-(3-fluoro-6-methylpyridin-2-yl)cyclopropane-1-carboxamide]: 400 to 1500 nM and under 1 nM.
On to `Cc1ccnc([C@H]2C[C@@H]2C(=O)Nc2ncc(F)c(NCc3cn4cc(C5CC5)cc(N5CC(=O)N(CCOCc6ccccc6)C5=O)c4n3)n2)n1` (racemic) [Example 515, rac-(1S*,2S*)-N-(4-(((8-(3-(2-(benzyloxy)ethyl)-2,4-dioxoimidazolidin-1-yl)-6-cyclopropylimidazo[1,2-a]pyridin-2-yl)methyl)amino)-5-fluoropyrimidin-2-yl)-2-(4-methylpyrimidin-2-yl)cyclopropane-1-carboxamide], for which, at plasma kallikrein, the IC90 was in the range of 400 to 1500 nM. Further, the EC50 in experiment [1] was under 1 nM.
Consider `Cc1ccnc([C@H]2C[C@@H]2C(=O)Nc2ncc(F)c(N(C)Cc3cn4cc(C5CC5)cc(N5CC(=O)NC5=O)c4n3)n2)n1` (racemic) [Example 516, rac-(1S*,2S*)-N-(4-(((6-cyclopropyl-8-(2,4-dioxoimidazolidin-1-yl)imidazo[1,2-a]pyridin-2-yl)methyl)(methyl)amino)-5-fluoropyrimidin-2-yl)-2-(4-methylpyrimidin-2-yl)cyclopropane-1-carboxamide], for which the IC90 on plasma kallikrein was under 400 nM. Further, the half-maximal effective concentration (EC50) in experiment [1] was under 1 nM.
The matching figures for `Cc1ccnc([C@H]2C[C@@H]2C(=O)Nc2ncc(F)c(NCc3cn4cc(C5CC5)cc(N5CC(=O)N(C)C5=O)c4n3)n2)n1` (racemic) [Example 517, rac-(1S*,2S*)-N-(4-(((6-cyclopropyl-8-(3-methyl-2,4-dioxoimidazolidin-1-yl)imidazo[1,2-a]pyridin-2-yl)methyl)amino)-5-fluoropyrimidin-2-yl)-2-(4-methylpyrimidin-2-yl)cyclopropane-1-carboxamide]: under 400 nM and under 1 nM.
As to `Cc1ccnc([C@H]2C[C@@H]2C(=O)Nc2ncc(C(F)(F)F)c(NCc3cn4cc(C5CC5)cc(N5CC(=O)N(C)C5=O)c4n3)n2)n1` (racemic) [Example 518, rac-(1S*,2S*)-N-(4-(((6-cyclopropyl-8-(3-methyl-2,4-dioxoimidazolidin-1-yl)imidazo[1,2-a]pyridin-2-yl)methyl)amino)-5-(trifluoromethyl)pyrimidin-2-yl)-2-(4-methylpyrimidin-2-yl)cyclopropane-1-carboxamide], on plasma kallikrein, the IC90 was under 400 nM. Also, in experiment [1], the EC50 was under 1 nM.
The matching figures for `Cc1cc(NCc2cn3cc(C4CC4)cc(N4CC(=O)N(C)C4=O)c3n2)nc(NC(=O)[C@H]2C[C@@H]2c2nccc(C)n2)n1` (racemic) [Example 519, rac-(1S*,2S*)-N-(4-(((6-cyclopropyl-8-(3-methyl-2,4-dioxoimidazolidin-1-yl)imidazo[1,2-a]pyridin-2-yl)methyl)amino)-6-methylpyrimidin-2-yl)-2-(4-methylpyrimidin-2-yl)cyclopropane-1-carboxamide]: under 400 nM and under 1 nM.
As to `Cc1ccnc([C@H]2C[C@@H]2C(=O)Nc2nccc(NCc3cn4cc(C5CC5)cc(N5CC(=O)N(C)C5=O)c4n3)n2)n1` (racemic) [Example 520, rac-(1S*,2S*)-N-(4-(((6-cyclopropyl-8-(3-methyl-2,4-dioxoimidazolidin-1-yl)imidazo[1,2-a]pyridin-2-yl)methyl)amino)pyrimidin-2-yl)-2-(4-methylpyrimidin-2-yl)cyclopropane-1-carboxamide], on plasma kallikrein, the IC90 is under 400 nM. Also, the concentration for a half-maximal effect (EC50) in experiment [1] is under 1 nM.

Values taken from patent publication US20240228488A1 (TAKEDA PHARMACEUTICAL COMPANY LIMITED, priority 2021, published 2024).
